# According to ChEMBL document CHEMBL3272295, “Drugs derived from cannabinoids. 5. delta6a,10a-Tetrahydrocannabinol and heterocyclic analogs containing aromatic side chains” (J Med Chem, 1976):
# Columns and labels:
# Rattus norvegicus [1] = experiment: Increase in pepsin concentration in Sprague-Dawley rat at 10 mg/kg, po administered 30 mins prior to pylorus ligation measured after 4 hrs relative to control; assay type: functional
# Rattus norvegicus [2] = experiment: Antisecretory activity in Sprague-Dawley rat assessed as decrease in acid output at 1 mg/kg, po administered 30 mins prior to pylorus ligation measured after 4 hrs relative to control; assay type: functional; design: scale not given: the % may be the effect or the level left
# Rattus norvegicus [3] = experiment: Increase in pepsin concentration in Sprague-Dawley rat at 1 mg/kg, po administered 30 mins prior to pylorus ligation measured after 4 hrs relative to control; assay type: functional
# Rattus norvegicus [4] = experiment: Antisecretory activity in Sprague-Dawley rat assessed as decrease in volume at 10 mg/kg, po administered 30 mins prior to pylorus ligation measured after 4 hrs relative to control; assay type: functional; design: scale not given: the % may be the effect or the level left
# Rattus norvegicus [5] = experiment: Antisecretory activity in Sprague-Dawley rat assessed as decrease in volume at 5 mg/kg, po administered 30 mins prior to pylorus ligation measured after 4 hrs relative to control; assay type: functional; design: scale not given: the % may be the effect or the level left
# Rattus norvegicus [6] = experiment: Increase in pepsin concentration in Sprague-Dawley rat at 5 mg/kg, po administered 30 mins prior to pylorus ligation measured after 4 hrs relative to control; assay type: functional
# Rattus norvegicus [7] = experiment: Antisecretory activity in Sprague-Dawley rat assessed as decrease in acidity at 10 mg/kg, po administered 30 mins prior to pylorus ligation measured after 4 hrs relative to control; assay type: functional; design: scale not given: the % may be the effect or the level left
# Rattus norvegicus [8] = experiment: Antiulcer activity in albino Sprague-Dawley rat shay ulcer model assessed as ulcer index scores at 10 mg/kg administered intraduodenally post pyloric ligation measured after 18.5 hrs relative to vehicle-treated control; assay type: functional; conditions: route intraduodenal
# Rattus norvegicus [9] = experiment: Antisecretory activity in Sprague-Dawley rat assessed as decrease in pepsin output at 5 mg/kg, po administered 30 mins prior to pylorus ligation measured after 4 hrs relative to control; assay type: functional; design: scale not given: the % may be the effect or the level left
# Rattus norvegicus [10] = experiment: Antisecretory activity in Sprague-Dawley rat assessed as decrease in volume at 1 mg/kg, po administered 30 mins prior to pylorus ligation measured after 4 hrs relative to control; assay type: functional; design: scale not given: the % may be the effect or the level left
# Rattus norvegicus [11] = experiment: Antiulcer activity in albino Sprague-Dawley rat reserpine ulcer model assessed as prevention of reserpine-induced gastric lesions by measuring ulcer index scores at 10 mg/kg, po administered 30 mins prior to reserpine challenge measured after 6 hrs; assay type: functional, Stomach
# Rattus norvegicus [12] = experiment: Antisecretory activity in Sprague-Dawley rat assessed as decrease in acidity at 2.5 mg/kg, po administered 30 mins prior to pylorus ligation measured after 4 hrs relative to control; assay type: functional; design: scale not given: the % may be the effect or the level left
# Rattus norvegicus [13] = experiment: Antisecretory activity in Sprague-Dawley rat assessed as decrease in pepsin output at 1 mg/kg, po administered 30 mins prior to pylorus ligation measured after 4 hrs relative to control; assay type: functional; design: scale not given: the % may be the effect or the level left
# Rattus norvegicus [14] = experiment: Antiulcer activity in albino Sprague-Dawley rat stress ulcer model assessed as prevention of stress-induced gastric lesions at 5 mg/kg, po administered 30 mins prior to stress measured after 4 hrs relative to vehicle-treated control; assay type: functional, Stomach
# Rattus norvegicus [15] = experiment: Antisecretory activity in Sprague-Dawley rat assessed as decrease in pepsin output at 2.5 mg/kg, po administered 30 mins prior to pylorus ligation measured after 4 hrs relative to control; assay type: functional; design: scale not given: the % may be the effect or the level left
# Rattus norvegicus [16] = experiment: Antisecretory activity in Sprague-Dawley rat assessed as decrease in acidity at 5 mg/kg, po administered 30 mins prior to pylorus ligation measured after 4 hrs relative to control; assay type: functional; design: scale not given: the % may be the effect or the level left
# Rattus norvegicus [17] = experiment: Antisecretory activity in Sprague-Dawley rat assessed as decrease in pepsin output at 10 mg/kg, po administered 30 mins prior to pylorus ligation measured after 4 hrs relative to control; assay type: functional; design: scale not given: the % may be the effect or the level left
# Rattus norvegicus [18] = experiment: Antisecretory activity in Sprague-Dawley rat assessed as decrease in acid output at 10 mg/kg, po administered 30 mins prior to pylorus ligation measured after 4 hrs relative to control; assay type: functional; design: scale not given: the % may be the effect or the level left
# Rattus norvegicus [19] = experiment: Antiulcer activity in albino Sprague-Dawley rat shay ulcer model assessed as ulcer index scores at 5 mg/kg administered intraduodenally post pyloric ligation measured after 18.5 hrs relative to vehicle-treated control; assay type: functional; conditions: route intraduodenal
# Rattus norvegicus [20] = experiment: Antisecretory activity in Sprague-Dawley rat assessed as decrease in acid output at 2.5 mg/kg, po administered 30 mins prior to pylorus ligation measured after 4 hrs relative to control; assay type: functional; design: scale not given: the % may be the effect or the level left
# Rattus norvegicus [21] = experiment: Increase in pepsin concentration in Sprague-Dawley rat at 2.5 mg/kg, po administered 30 mins prior to pylorus ligation measured after 4 hrs relative to control; assay type: functional
# Rattus norvegicus [22] = experiment: Antisecretory activity in Sprague-Dawley rat assessed as decrease in volume at 2.5 mg/kg, po administered 30 mins prior to pylorus ligation measured after 4 hrs relative to control; assay type: functional; design: scale not given: the % may be the effect or the level left
# Rattus norvegicus [23] = experiment: Antiulcer activity in albino Sprague-Dawley rat stress ulcer model assessed as prevention of stress-induced gastric lesions by measuring ulcer index score at 10 mg/kg, po administered 30 mins prior to stress measured after 4 hrs; assay type: functional, Stomach
# Rattus norvegicus [24] = experiment: Antiulcer activity in albino Sprague-Dawley rat reserpine ulcer model assessed as prevention of reserpine-induced gastric lesions by measuring ulcer index scores at 5 mg/kg, po administered 30 mins prior to reserpine challenge measured after 6 hrs; assay type: functional, Stomach
# Rattus norvegicus [25] = experiment: Antisecretory activity in Sprague-Dawley rat assessed as decrease in acidity at 1 mg/kg, po administered 30 mins prior to pylorus ligation measured after 4 hrs relative to control; assay type: functional; design: scale not given: the % may be the effect or the level left
# Rattus norvegicus [26] = experiment: Antisecretory activity in Sprague-Dawley rat assessed as decrease in acid output at 5 mg/kg, po administered 30 mins prior to pylorus ligation measured after 4 hrs relative to control; assay type: functional; design: scale not given: the % may be the effect or the level left
# [27] = Acute toxicity in po dosed mouse; assay type: organism-based; conditions: in vivo
# Mus musculus [28] = experiment: Analgesic activity in mouse assessed as inhibition of acetic acid-induced writhing at 20 mg/kg, po administered 30 mins prior to acetic acid challenge measured after 5 mins for 20 mins; assay type: functional
# Rattus norvegicus [29] = experiment: Antipsychotic activity in rat assessed as reduction of methamphetamine-induced hyperactivity at 1 mg/kg, po administered prior to methamphetamine challenge relative to vehicle-treated control; assay type: functional; design: scale not given: the % may be the effect or the level left
# Rattus norvegicus [30] = experiment: Antianxiety activity in Long-Evans rat assessed as reduction in motor activity at 40 mg/kg, po after 2 hrs relative to vehicle-treated control; assay type: functional; design: scale not given: the % may be the effect or the level left
# Rattus norvegicus [31] = experiment: Antianxiety activity in Long-Evans rat assessed as reduction in motor activity at 5 mg/kg, po after 2 hrs relative to vehicle-treated control; assay type: functional; design: scale not given: the % may be the effect or the level left
# Rattus norvegicus [32] = experiment: Antipsychotic activity in rat assessed as reduction of methamphetamine-induced hyperactivity at 5 mg/kg, po administered prior to methamphetamine challenge relative to vehicle-treated control; assay type: functional; design: scale not given: the % may be the effect or the level left
# Rattus norvegicus [33] = experiment: Analgesic activity in po dosed Sprague-Dawley rat after 15 to 90 mins by tail flick test; assay type: functional
# Rattus norvegicus [34] = experiment: Antihypertensive activity in spontaneously hypertensive rat model assessed as reduction in blood pressure at 3 mg/kg, po after 3 hrs; assay type: functional; design: scale not given: the % may be the effect or the level left
# Mus musculus [35] = experiment: Antidepressant activity in po dosed mouse assessed as potentiation of DOPA-induced effect administered 4 hrs prior to DOPA challenge; assay type: functional; conditions: read-out: MED
# Mus musculus [36] = experiment: Antianxiety activity in albino BALB/cJ mouse assessed as reduction in footshock-induced fighting behavior at 5 mg/kg, po after 30 to 90 mins; assay type: functional; design: scale not given: the % may be the effect or the level left
# Rattus norvegicus [37] = experiment: Antihypertensive activity in spontaneously hypertensive rat model assessed as reduction in blood pressure at 1 mg/kg, po after 24 hrs; assay type: functional; design: scale not given: the % may be the effect or the level left
# Rattus norvegicus [38] = experiment: Analgesic activity in Sprague-Dawley rat assessed as increase in pain threshold at 10 mg/kg, po after 15 to 90 mins by tail flick test; assay type: functional
# Rattus norvegicus [39] = organism: Rattus norvegicus; experiment: animal or person; assay type: functional; conditions: Charles River, route oral
# Description: Antidiarrheal activity in Charles River rat assessed as inhibition of castor oil-induced diarrhea by measuring protected animals at 0.5 mg/kg, po administered 1 hr prior to castor oil challenge measured after 1 hr relative to vehicle-treated control
# Rattus norvegicus [40] = experiment: Antianxiety activity in Long-Evans rat assessed as reduction in motor activity at 2 mg/kg, po after 2 hrs relative to vehicle-treated control; assay type: functional; design: scale not given: the % may be the effect or the level left
# Rattus norvegicus [41] = experiment: Antihypertensive activity in spontaneously hypertensive rat model assessed as reduction in blood pressure at 1 mg/kg, po after 3 hrs; assay type: functional; design: scale not given: the % may be the effect or the level left
# Mus musculus [42] = experiment: Analgesic activity in po dosed mouse assessed as inhibition of acetic acid-induced writhing administered 30 mins prior to acetic acid challenge measured after 5 mins for 20 mins; assay type: functional
# Rattus norvegicus [43] = experiment: Antihypertensive activity in spontaneously hypertensive rat model assessed as reduction in blood pressure at 3 mg/kg, po after 24 hrs; assay type: functional; design: scale not given: the % may be the effect or the level left
# Mus musculus [44] = experiment: Analgesic activity in mouse assessed as inhibition of acetic acid-induced writhing at 16 mg/kg, po administered 30 mins prior to acetic acid challenge measured after 5 mins for 20 mins; assay type: functional
# Mus musculus [45] = experiment: Increase in footshock-induced fighting behavior in albino BALB/cJ mouse at 10 mg/kg, po after 30 to 90 mins; assay type: functional
compound,measurement,setting,value
Cl.NC(=S)Cc1ccccn1,Activity,Rattus norvegicus [1],45.8%
same,Activity,Rattus norvegicus [2],35.5%
same,Activity,Rattus norvegicus [3],29.3%
same,Activity,Rattus norvegicus [4],76.7%
same,Activity,Rattus norvegicus [5],64%
same,Activity,Rattus norvegicus [6],92.6%
same,Activity,Rattus norvegicus [7],86.3%
same,UI,Rattus norvegicus [8],0.7
same,Activity,Rattus norvegicus [9],31%
same,Activity,Rattus norvegicus [10],33.1%
same,UI,Rattus norvegicus [11],0
same,Activity,Rattus norvegicus [12],17.4%
same,Activity,Rattus norvegicus [13],19%
same,UI,Rattus norvegicus [14],0.4
same,Activity,Rattus norvegicus [15],8.4%
same,Activity,Rattus norvegicus [16],49.8%
same,Activity,Rattus norvegicus [17],58.9%
same,Activity,Rattus norvegicus [18],95.5%
same,UI,Rattus norvegicus [19],3.3
same,Activity,Rattus norvegicus [20],47.3%
same,Activity,Rattus norvegicus [21],43.1%
same,Activity,Rattus norvegicus [22],35.8%
same,UI,Rattus norvegicus [23],0
same,UI,Rattus norvegicus [24],0.1
same,Activity,Rattus norvegicus [25],3.8%
same,Activity,Rattus norvegicus [26],81.8%
C#CCN1CCC2=C(C1)c1c(OC(C)=O)cc(C(C)CCCc3ccc(F)cc3)cc1OC2(C)C (configuration not stated),LD50,[27],≥ 1000 mg/kg
same,inhibition in vivo at 20 mg/kg,Mus musculus [28],27%
same,Activity,Rattus norvegicus [29],30%
same,Activity,Rattus norvegicus [30],90%
same,Activity,Rattus norvegicus [31],57%
same,Activity,Rattus norvegicus [32],66%
same,ED50,Rattus norvegicus [33],1 mg/kg
CC1CCC2=C(C1)c1c(O)cc(C(C)C(C)CCc3ccncc3)cc1OC2(C)C (configuration not stated),Activity,Rattus norvegicus [34],19%
same,minimal effective dose,Mus musculus [35],20 mg/kg
same,Activity,Mus musculus [36],0%
same,Activity,Rattus norvegicus [37],15%
same,LD50,[27],≥ 1000 mg/kg
same,Activity,Rattus norvegicus [38],58%
same,inhibition in vivo at 0.5 mg/kg,Rattus norvegicus [39],90%
same,Activity,Rattus norvegicus [31],42%
same,Activity,Rattus norvegicus [40],28%
same,Activity,Rattus norvegicus [41],13%
same,Activity,Rattus norvegicus [32],13%
same,ED50,Mus musculus [42],4.7 mg/kg
same,Activity,Rattus norvegicus [43],7%
C#CCN1CCC2=C(C1)c1c(O)cc(C(C)CCCc3ccc(C)cc3)cc1OC2(C)C (configuration not stated),LD50,[27],≥ 1000 mg/kg
same,inhibition in vivo at 0.5 mg/kg,Rattus norvegicus [39],0%
same,inhibition in vivo at 16 mg/kg,Mus musculus [44],32%
same,Activity,Rattus norvegicus [31],24%
same,Activity,Mus musculus [45],17%
same,Activity,Rattus norvegicus [32],46%
